Source: patent US20260022143A1, “Cyclic Peptide Inhibitors of IL-23” (JANSSEN PHARMACEUTICA NV, priority 2022, published 2026)
Starred links: 1 amine or outer side, 2 acyl side, 3 side chain; linkers in the order of their positions; H or OH if unused. Positions of bridges follow the written chain, without caps; N, C: chain ends. Non-standard residues stand in square brackets, D forms with d. Residues, ends and D or L forms follow the SMILES beside them. Groups on a side chain read outwards from the residue. *: point of attachment. Trp(7-(3-AcNH-Ph)) = CC(=O)Nc1cccc(-c2cccc3c(C[C@H](N)C(=O)O)c[nH]c23)c1; X16 = C[N+](C)(C)Cc1cn(-c2ccc(C[C@H](N[*:1])C(=O)[*:2])cc2)nn1; Me3N+(CH2)2O(CH2)2O(CH2)2CO = C[N+](C)(C)CCOCCOCCC(=O)*; CH2CH2OCH2CH2OCH2CH2NMe3+ = C[N+](C)(C)CCOCCOCC*; Trp(7-Me) = Cc1cccc2c(C[C@H](N)C(=O)O)c[nH]c12; Abu(4-yl) = O=C([C@H](CC[*:3])N[*:1])[*:2]; Hexanoyl(6-NMe3+) = C[N+](C)(C)CCCCCC(=O)*; Dab(NMeAc) = CC(=O)N(C)CC[C@H](N)C(=O)O; γGlu = O=C(O)[C@H](CCC(=O)[*:2])N[*:1]; 2Nal = N[C@@H](Cc1ccc2ccccc2c1)C(=O)O; AEF = NCCOc1ccc(C[C@H](N)C(=O)O)cc1; X19 = C[N+](C)(C)C[C@@H](CC(=O)O)N*; PEG6 = NCCOCCOCCOCCOCCOCCOCCC(=O)O; 3Pal = N[C@@H](Cc1cccnc1)C(=O)O; Lys(Me) = CNCCCC[C@H](N)C(=O)O; NMeK = CN[C@@H](CCCCN)C(=O)O; Pen = CC(C)(S)[C@H](N)C(=O)O; Suc = O=C(CCC(=O)[*:2])[*:1]; Lauroyl = CCCCCCCCCCCC(=O)*; αMeC = C[C@](N)(CS)C(=O)O; Thp = NC1(C(=O)O)CCOCC1; X3 = C[N+](C)(C)CCCCC*; AEEA = NCCOCCOCC(=O)O; Sar = CNCC(=O)O

Experiments:
IL-23R = target: T1, IL-23R (Homo sapiens, UniProt Q5VWK5); experiment: IL23R Reporter Assay; format: cell-based; conditions: HEK293 cells containing IL-23R, IL-12RP1 and STAT-inducible firefly luciferase reporter; 10 ng/mL IL-23 (EC90); 5 h at 37° C.; read-out: IL23R Reporter Assay
T1 construct: host or cells: HEK293
T1 sequence (Q5VWK5 24-629): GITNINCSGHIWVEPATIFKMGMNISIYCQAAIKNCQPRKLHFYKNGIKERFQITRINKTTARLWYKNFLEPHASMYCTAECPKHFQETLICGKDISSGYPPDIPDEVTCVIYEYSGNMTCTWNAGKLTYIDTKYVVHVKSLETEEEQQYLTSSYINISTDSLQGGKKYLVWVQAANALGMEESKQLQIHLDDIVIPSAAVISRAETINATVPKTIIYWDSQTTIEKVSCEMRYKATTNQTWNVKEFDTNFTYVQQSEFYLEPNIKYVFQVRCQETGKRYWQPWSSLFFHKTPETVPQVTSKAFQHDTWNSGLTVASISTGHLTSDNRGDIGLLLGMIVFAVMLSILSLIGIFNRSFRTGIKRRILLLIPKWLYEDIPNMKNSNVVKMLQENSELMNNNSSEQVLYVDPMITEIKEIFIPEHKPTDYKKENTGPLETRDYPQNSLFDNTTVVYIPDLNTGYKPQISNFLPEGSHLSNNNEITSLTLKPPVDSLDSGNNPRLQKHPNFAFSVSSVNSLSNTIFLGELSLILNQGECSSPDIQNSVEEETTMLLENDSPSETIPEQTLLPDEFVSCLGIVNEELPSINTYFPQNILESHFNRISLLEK

[1] = Exposed Polar Surface Area (EPSA); format: physicochemical; conditions: SFC on Chirex 3014 column; sample 1 mM DMSO stock; read-out: EPSA
Summary of the method: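 SFC retention on a Chirex 3014 (S)-valine/(R)-1-(α-naphthyl)ethylamine column, 35 °C, CO2 with MeOH (20 mM ammonium formate) gradient 5–60% at 20%/min, 14 MPa outlet. Retention times converted to EPSA (Å^2) via linear calibration with 8 standards; samples from 1 mM DMSO stock, run in duplicate.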

Compound	IC50 (IL-23R)	EPSA [1]
CCCCCCCCCCCC(=O)N[C@@H](CCC(=O)NCCOCCOCC(=O)NCCOCCOCC(=O)NCCOCCOCC(=O)NCCOCCOCC(=O)NCCCC[C@@H](NC(=O)CCOCCOCC[N+](C)(C)C)C(=O)N[C@@H]1C(=O)N[C@@H](CC(=O)N(C)C)C(=O)N[C@@H]([C@@H](C)O)C(=O)N[C@@H](Cc2c[nH]c3c(C)cccc23)C(=O)N[C@@H](CCCCNC(C)=O)C(=O)N[C@H](C(=O)N[C@@H](Cc2ccc(OCCCCC[N+](C)(C)C)cc2)C(=O)N[C@@H](Cc2ccc3ccccc3c2)C(=O)NC2(C(=O)N[C@@H](CCCCN(C)C(C)=O)C(=O)N[C@@H](CC(N)=O)C(=O)N[C@@H](Cc3cccnc3)C(=O)N(C)[C@@H](CCCCNC(=O)COCCOCCNC(=O)COCCOCCNC(=O)COCCOCCNC(=O)COCCOCCNC(=O)CC[C@H](NC(=O)CCCCCCCCCCC)C(=O)O)C(N)=O)CCOCC2)C(C)(C)SSC1(C)C)C(=O)O [compound 404, cPEG3aCO-k(PEG2PEG2PEG2PEG2gEC12)-Pen(3)-N(N(Me)2)-T-7MeW-K(Ac)-Pen(3)-TMAPF-2Nal-THP-K(NMeac)-N-3Pya-NMeK(PEG2PEG2PEG2PEG2gEC12)-CONH2] ({Me3N+(CH2)2O(CH2)2O(CH2)2CO}-[dK]([AEEA-AEEA-AEEA-AEEA-γGlu-Lauroyl])[Pen]D(NMe2)T[Trp(7-Me)]K(Ac)[Pen]Y(X3)[2Nal][Thp][Lys(Me)](Ac)N[3Pal][NMeK]([AEEA-AEEA-AEEA-AEEA-γGlu-Lauroyl])-NH2; disulfide 2-7)	31 nM	196 A^2
CCCCCCCCCCCC(=O)N[C@@H](CCC(=O)NCCOCCOCC(=O)NCCOCCOCC(=O)NCCCC[C@@H]1NC(=O)[C@H](Cc2c[nH]c3c(C)cccc23)NC(=O)[C@H]([C@@H](C)O)NC(=O)[C@H](CCCCNC(=O)COCCOCCNC(=O)COCCOCCNC(=O)CC[C@H](NC(=O)CCCCCCCCCCC)C(=O)O)NC(=O)[C@@H](NC(=O)CCOCCOCC[N+](C)(C)C)C(C)(C)SSC(C)(C)[C@@H](C(=O)N[C@@H](Cc2ccc(OCCCCC[N+](C)(C)C)cc2)C(=O)N[C@@H](Cc2ccc3ccccc3c2)C(=O)NC2(C(=O)N[C@@H](CCCCN(C)C(C)=O)C(=O)N[C@@H](CC(N)=O)C(=O)N[C@@H](Cc3cccnc3)C(=O)N(C)CC(=O)N(C)C)CCOCC2)NC1=O)C(=O)O [compound 389, cPEG3aCO-Pen(3)-K(PEG2PEG2gEC12)-T-7MeW-K(PEG2PEG2gEC12)-Pen(3)-TMAPF-2Nal-THP-K(NMeAc)-N-3Pya-Sar-CON(Me)2] ({Me3N+(CH2)2O(CH2)2O(CH2)2CO}-[Pen]K([AEEA-AEEA-γGlu-Lauroyl])T[Trp(7-Me)]K([AEEA-AEEA-γGlu-Lauroyl])[Pen]Y(X3)[2Nal][Thp][Lys(Me)](Ac)N[3Pal][Sar]-NMe2; disulfide 1-6)	390 nM	185 A^2
CCCCCCCCCCCC(=O)N[C@@H](CCC(=O)NCCOCCOCC(=O)NCCOCCOCC(=O)NCCCC[C@H](NC(=O)C1(NC(=O)[C@H](Cc2ccc3ccccc3c2)NC(=O)[C@H](Cc2ccc(OCCCCC[N+](C)(C)C)cc2)NC(=O)[C@H]2NC(=O)[C@H](CCCCNC(C)=O)NC(=O)[C@H](Cc3c[nH]c4c(C)cccc34)NC(=O)[C@H]([C@@H](C)O)NC(=O)[C@H](CC(N)=O)NC(=O)[C@@H](NC(=O)CCOCCOCC[N+](C)(C)C)C(C)(C)SSC2(C)C)CCOCC1)C(=O)N[C@@H](CC(N)=O)C(=O)N[C@@H](Cc1cccnc1)C(=O)N(C)[C@@H](CCCCNC(=O)COCCOCCNC(=O)COCCOCCNC(=O)CC[C@H](NC(=O)CCCCCCCCCCC)C(=O)O)C(N)=O)C(=O)O [compound 349, cPEG3aCO-Pen(3)-N-T-7MeW-K(Ac)-Pen(3)-TMAPF-2Nal-THP-K(PEG2PEG2gEC12)-N-3Pya-NMeK(PEG2PEG2gEC12)-CONH2] ({Me3N+(CH2)2O(CH2)2O(CH2)2CO}-[Pen]NT[Trp(7-Me)]K(Ac)[Pen]Y(X3)[2Nal][Thp]K([AEEA-AEEA-γGlu-Lauroyl])N[3Pal][NMeK]([AEEA-AEEA-γGlu-Lauroyl])-NH2; disulfide 1-6)	220 nM	179 A^2
CCCCCCCCCCCC(=O)N[C@@H](CCC(=O)NCCOCCOCCOCCOCCOCCOCCC(=O)NCCOCCOCC(=O)NCCCC[C@@H](C(N)=O)N(C)C(=O)[C@H](Cc1cccnc1)NC(=O)[C@H](CC(N)=O)NC(=O)[C@H](CCCCN(C)C(C)=O)NC(=O)C1(NC(=O)[C@H](Cc2ccc3ccccc3c2)NC(=O)[C@H](Cc2ccc(OCCCCC[N+](C)(C)C)cc2)NC(=O)[C@H]2NC(=O)[C@H](CCCCNC(C)=O)NC(=O)[C@H](Cc3c[nH]c4c(C)cccc34)NC(=O)[C@H]([C@@H](C)O)NC(=O)[C@H](CC(=O)N(C)C)NC(=O)[C@@H](NC(=O)CCOCCOCC[N+](C)(C)C)C(C)(C)SSC2(C)C)CCOCC1)C(=O)O [compound 360, cPEG3aCO-Pen(3)-N(N(Me)2)-T-7MeW-K(Ac)-Pen(3)-TMAPF-2Nal-THP-K(NMeac)-N-3Pya-NMeK(PEG2PEG6gEC12)-CONH2] ({Me3N+(CH2)2O(CH2)2O(CH2)2CO}-[Pen]D(NMe2)T[Trp(7-Me)]K(Ac)[Pen]Y(X3)[2Nal][Thp][Lys(Me)](Ac)N[3Pal][NMeK]([AEEA-PEG6-γGlu-Lauroyl])-NH2; disulfide 1-6)	8.4 nM	166 A^2

Stronger by IC50 (IL-23R), values ahead:

IC50 (IL-23R)	EPSA [1]	Compound
4.2 nM	159 A^2	CC(=O)NCCCC[C@@H]1NC(=O)[C@H](Cc2c[nH]c3c(C)cccc23)NC(=O)[C@H]([C@@H](C)O)NC(=O)[C@H](CC(N)=O)NC(=O)[C@@H](NC(=O)[C@@H](CCCCNC(=O)CCCCC[N+](C)(C)C)NC(C)=O)C(C)(C)SSC(C)(C)[C@@H](C(=O)N[C@@H](Cc2ccc(OCCN)cc2)C(=O)N[C@@H](Cc2ccc3ccccc3c2)C(=O)NC2(C(=O)N[C@@H](CCCCNC(C)=O)C(=O)N[C@@H](CC(N)=O)C(=O)N[C@@H](Cc3cccnc3)C(=O)N(C)CC(N)=O)CCOCC2)NC1=O [compound 87] (Ac-[dK](Hexanoyl(6-NMe3+))[Pen]NT[Trp(7-Me)]K(Ac)[Pen][AEF][2Nal][Thp]K(Ac)N[3Pal][Sar]-NH2; disulfide 2-7 (inferred))
5.1 nM	154 A^2	CC(=O)N[C@H](CCCCNC(=O)CCC(=O)N[C@H](CC(=O)O)C[N+](C)(C)C)C(=O)N[C@@H]1C(=O)N[C@@H](CC(=O)N(C)C)C(=O)N[C@@H]([C@@H](C)O)C(=O)N[C@@H](Cc2c[nH]c3c(C)cccc23)C(=O)N[C@@H](CCCCN(C)C(C)=O)C(=O)N[C@H](C(=O)N[C@@H](Cc2ccc(OCCOCCOCC[N+](C)(C)C)cc2)C(=O)N[C@@H](Cc2ccc3ccccc3c2)C(=O)NC2(C(=O)N[C@@H](CCN(C)C(C)=O)C(=O)N[C@@H](CC(N)=O)C(=O)N[C@@H](Cc3cccnc3)C(=O)N(C)CC(=O)N(C)C)CCOCC2)C(C)(C)SSC1(C)C [compound 213, MeCO-k(d)-Pen(3)-N(N(Me)2)-T-7MeW-K(NMeAc)-Pen(3)-APEG3F-2Nal-THP-Dab(NMeAc)-N-3Pya-Sar-CON(Me)2] (Ac-[dK]([Suc-X19])[Pen]D(NMe2)T[Trp(7-Me)][Lys(Me)](Ac)[Pen]Y(CH2CH2OCH2CH2OCH2CH2NMe3+)[2Nal][Thp][Dab(NMeAc)]N[3Pal][Sar]-NMe2; disulfide 2-7)
1.2 nM	158 A^2	CC(=O)N(C)CCCC[C@@H]1NC(=O)[C@H](Cc2c[nH]c3c(C)cccc23)NC(=O)[C@H]([C@@H](C)O)NC(=O)[C@H](CC(=O)N(C)C)NC(=O)[C@@H](NC(=O)CCOCCOCC[N+](C)(C)C)C(C)(C)SSC(C)(C)[C@@H](C(=O)N[C@@H](Cc2ccc(-n3cc(C[N+](C)(C)C)nn3)cc2)C(=O)N[C@@H](Cc2ccc3ccccc3c2)C(=O)NC2(C(=O)N[C@@H](CCCCN(C)C(C)=O)C(=O)N[C@@H](CC(N)=O)C(=O)N[C@@H](Cc3cccnc3)C(=O)N(C)CC(=O)N(C)C)CCOCC2)NC1=O [compound 332, cPEG3aCO-Pen(3)-N(N(Me)2)-T-7MeW-K(NMeAc)-Pen(3)-F(4TzlTMA1)-2Nal-THP-K(NMeAc)-N-3Pya-Sar-CON(Me)2] ({Me3N+(CH2)2O(CH2)2O(CH2)2CO}-[Pen]D(NMe2)T[Trp(7-Me)][Lys(Me)](Ac)[Pen][X16][2Nal][Thp][Lys(Me)](Ac)N[3Pal][Sar]-NMe2; disulfide 1-6)
6.1 nM	166 A^2	CC(=O)NCCCC[C@@H]1NC(=O)[C@H](Cc2c[nH]c3c(-c4cccc(NC(C)=O)c4)cccc23)NC(=O)[C@H]([C@@H](C)O)NC(=O)[C@H](CC(N)=O)NC(=O)[C@@H](NC(C)=O)CCSC[C@@](C)(C(=O)N[C@@H](Cc2ccc(OCCCCC[N+](C)(C)C)cc2)C(=O)N[C@@H](Cc2ccc3ccccc3c2)C(=O)NC2(C(=O)N[C@@H](CCCCNC(C)=O)C(=O)N[C@@H](CC(N)=O)C(=O)N[C@@H](Cc3cccnc3)C(=O)N(C)CC(N)=O)CCOCC2)NC1=O [compound 477, MeCO-Abu(1)-N-T-7(3NAcPh)W-K(Ac)-aMeC(1)-TMAPF-2Nal-THP-K(Ac)-N-3Pya-Sar-CONH2] (Ac-[Abu(4-yl)]NT[Trp(7-(3-AcNH-Ph))]K(Ac)[αMeC]Y(X3)[2Nal][Thp]K(Ac)N[3Pal][Sar]-NH2; thioether 1-6)
